Experimental data from patent US6841167B1, “β-carboline pharmaceutical compositions” (Lilly Icos LLC., priority 1999, dated 2005).

Legend:
[1] = bioavailability of Compound A; details: in vivo
[2] = physical stability evaluation of solutions (microscope, drug crystals); format: physicochemical; details: PEG 400, room temperature and 4° C.
Method: The solutions then were allowed to cool to room temperature (RT). A portion of each solution was mixed with water (8 mg water per 100 mg solution) to mimic the water migration and retention processes occurring in a soft capsule. The solutions (with and without water) were stored at RT (room temperature) and at 4° C. for physical stability evaluation.

Compound: CN1CC(=O)N2[C@H](c3ccc4c(c3)OCO4)c3[nH]c4ccccc4c3C[C@@H]2C1=O (relative stereo) [Compound A, (6R-trans)-6-(1,3-benzodioxol-5-yl)-2,3,6,7,12,12a-hexahydro-2-methylpyrazino-[1′, 2′:1, ]pyrido[3,4-b]indole-1,4-dione]
- bioavailability [1]: low and inconsistent bioavailability
- drug concentration at which PEG 400 solution formulation is physically stable with respect to drug crystallization [2]: ≤ 2.8%
